Measured values as given in the supplement of paper PMC10307832.

Legend:
Test in all cases: relative viability (nuclei count vs DMSO), 5 days (fraction); higher = more cells survive
[1] = compound: CC(=O)Nc1cccc(-n2c(=O)n(C3CC3)c(=O)c3c(Nc4ccc(I)cc4F)n(C)c(=O)c(C)c32)c1 [Trametinib] + Cc1nc(NC(=O)N2CCC[C@H]2C(N)=O)sc1-c1ccnc(C(C)(C)C(F)(F)F)c1 [Alpelisib] (partner 2 µM)
Outline: (§1)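 Lung cancer cell lines, seeded in 1536-well plates, were treated the following day by pin tool with a single drug or with five library-drug doses (not always all listed) in √10 steps on top of a fixed anchor-drug dose. Cells were fixed and nuclei stained in one step after 5 days, and nuclei were counted. Relative viability is the nuclei count for treated wells divided by that for vehicle wells, reported as medians of duplicate plates.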

[2] = compound: CN1C=C(C2=CC=CC=C21)/C=C\3/C4=C(C=CC=N4)NC3=O + CS(=O)(=O)N1CCN(Cc2cc3nc(-c4cccc5[nH]ncc45)nc(N4CCOCC4)c3s2)CC1 [Pictilisib] (partner 1 µM)
Outline: as §1

[3] = compound: CN1C=C(C2=CC=CC=C21)/C=C\3/C4=C(C=CC=N4)NC3=O + COc1cccc2cc(-c3nc([C@H]4CC[C@H](C(=O)O)CC4)n4ncnc(N)c34)[nH]c12 [OSI-027] (partner 0.5 µM)
Outline: as §1

[4] = compound: CC(=O)Nc1cccc(-n2c(=O)n(C3CC3)c(=O)c3c(Nc4ccc(I)cc4F)n(C)c(=O)c(C)c32)c1 [Trametinib] + N=C(N)NC(=N)NCCc1ccccc1 [Phenformin] (partner 250 µM)
Outline: as §1

Cell Line	relative viability ([1]; first compound 0.0025 µM)	relative viability ([1]; first compound 0.007906 µM)	relative viability ([1]; first compound 0.025 µM)	relative viability ([1]; first compound 0.07906 µM)	relative viability ([1]; first compound 0.25 µM)	relative viability ([2]; first compound 0.02 µM)	relative viability ([2]; first compound 0.06325 µM)	relative viability ([2]; first compound 0.2 µM)	relative viability ([2]; first compound 0.6325 µM)	relative viability ([2]; first compound 2 µM)	relative viability ([3]; first compound 0.02 µM)	relative viability ([3]; first compound 0.06325 µM)	relative viability ([3]; first compound 0.6325 µM)	relative viability ([3]; first compound 2 µM)	relative viability ([4]; first compound 0.0025 µM)	relative viability ([4]; first compound 0.007906 µM)	relative viability ([4]; first compound 0.025 µM)	relative viability ([4]; first compound 0.07906 µM)	relative viability ([4]; first compound 0.25 µM)	relative viability ([3]; first compound 0.2 µM)
HCC-78	0.304	0.242	0.226	0.205	0.224	0.199	0.183	0.206	0.178	0.171	0.368	0.335	0.392	0.35	0.678	0.501	0.482	0.489	0.401	
NCI-H358	0.563	0.373	0.277	0.269	0.248	0.33	0.319	0.301	0.338	0.387	0.756	0.67	0.851	0.689	0.201	0.189	0.146	0.124	0.121	0.768
SK-LU-1	0.966	0.841	0.7	0.361	0.226	0.425	0.544	0.63	0.472	0.543	0.273	0.284	0.354	0.382	0.482	0.501	0.288	0.246	0.164	0.333
H3255	0.684	0.566	0.503	0.41	0.317	0.41	0.453	0.395	0.501	0.475	0.676	0.627	0.621	0.53	0.346	0.368	0.342	0.297	0.263	0.532
LOU-NH91	0.674	0.601	0.619	0.545	0.4	0.466	0.455	0.481	0.498	0.491	0.728	0.688	0.63	0.7	0.685	0.752	0.661	0.364	0.294	0.696
NCI-H1666	0.697	0.501	0.465	0.331	0.306	0.552	0.322	0.318	0.272	0.26	0.853	0.914	0.729	0.818	0.526	0.574	0.6	0.57	0.513	0.842
SK-MES-1	0.722	0.542	0.323	0.31	0.184	0.338	0.308	0.346	0.342	0.302	0.58	0.628	0.608	0.446	0.64	0.64	0.481	0.43	0.287	0.582
NCI-H2023	0.38	0.486	0.315	0.352	0.288	0.258	0.17	0.128	0.193	0.181	0.395	0.351	0.337	0.316	0.34	0.393	0.349	0.289	0.167	0.231
COR-L 105	0.808	1.03	0.352	0.419	0.389	0.412	0.383	0.385	0.364	0.364	1.01	0.897	0.746	0.724	0.421	0.354	0.293	0.277	0.213	0.591
NCI-H838	0.97	0.877		0.709	0.551	0.311	0.351	0.464	0.4	0.381	0.335	0.326	0.366	0.319	0.515	0.509	0.281	0.369	0.351	0.354
SW 1573	0.629	0.619	0.564	0.457	0.43	0.474	0.489	0.51	0.532	0.521	0.737	0.557	0.54	0.551	0.29	0.279	0.255	0.156	0.15	0.559
